Among the data in PubChem BioAssay AID256 (DTP/NCI, 2004) are T/C values, retold here.

This experiment has as its system CD2F1 mice, L1210 leukemia ip, survival T/C. The experiment is described as follows: NCI In Vivo Anticancer Drug Screen. Data for tumor model L1210 Leukemia (intraperitoneal) in CD2F1 (CDF1) mice. Conditions: higher = longer survival. The essentials: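 Vehicle-treated tumor-bearing mice served as controls (C) for compound-treated mice (T). Reported figure is T divided by C.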

Where [1] appears, read: endpoint: mean survival time, dose: 25.0 mg/kg/injection, schedule: Q01DX005 (ip), vehicle: water.
The mark [2] stands for this setting: endpoint: mean survival time, dose: 50.0 mg/kg/injection, schedule: Q01DX005 (ip), vehicle: water.
Setting [3] is: endpoint: mean survival time, dose: 100.0 mg/kg/injection, schedule: Q01DX005 (ip), vehicle: water.
Setting [4] is: endpoint: mean survival time, dose: 25.0 mg/kg/injection, schedule: Q04DX003 (ip), vehicle: saline with Tween-80.
[5] abbreviates: endpoint: mean survival time, dose: 50.0 mg/kg/injection, schedule: Q04DX003 (ip), vehicle: saline with Tween-80.
[6] abbreviates: endpoint: mean survival time, dose: 100.0 mg/kg/injection, schedule: Q04DX003 (ip), vehicle: saline with Tween-80.
The mark [7] stands for this setting: endpoint: mean survival time, dose: 200.0 mg/kg/injection, schedule: Q04DX003 (ip), vehicle: saline with Tween-80.
The mark [8] stands for this setting: endpoint: mean survival time, dose: 400.0 mg/kg/injection, schedule: Q04DX003 (ip), vehicle: saline with Tween-80.
Setting [9] is: endpoint: mean survival time, dose: 100.0 mg/kg/injection, schedule: Q01DX001 (ip), vehicle: saline.
[10] abbreviates: endpoint: mean survival time, dose: 200.0 mg/kg/injection, schedule: Q01DX001 (ip), vehicle: saline.
Where [11] appears, read: endpoint: mean survival time, dose: 25.0 mg/kg/injection, schedule: Q01DX001 (ip), vehicle: saline with Tween-80.
[12] abbreviates: endpoint: mean survival time, dose: 50.0 mg/kg/injection, schedule: Q01DX001 (ip), vehicle: saline with Tween-80.
Setting [13] is: endpoint: mean survival time, dose: 100.0 mg/kg/injection, schedule: Q01DX001 (ip), vehicle: saline with Tween-80.
The mark [14] stands for this setting: endpoint: mean survival time, dose: 100.0 mg/kg/injection, schedule: Q01DX009 (ip), vehicle: saline with Tween-80.
[15] abbreviates: endpoint: mean survival time, dose: 200.0 mg/kg/injection, schedule: Q01DX009 (ip), vehicle: saline with Tween-80.

Toxic doses and inconclusive results are not listed.

For the molecule `Nc1nc(N)c2c(n1)=NC(c1cccc3ccccc13)N=2` (configuration not stated), the T/C (endpoint: mean survival time, dose: 6.25 mg/kg/injection, schedule: Q01DX005 (ip), vehicle: water) is 92 % of control; the T/C (endpoint: mean survival time, dose: 12.5 mg/kg/injection, schedule: Q01DX005 (ip), vehicle: water) was 89 % of control; the T/C under setting [1] was 91 % of control; the T/C under setting [2] is 92 % of control; the T/C under setting [3] is 89 % of control; the T/C (endpoint: mean survival time, dose: 200.0 mg/kg/injection, schedule: Q01DX005 (ip), vehicle: other) is 96 % of control. Moreover, the T/C (endpoint: mean survival time, dose: 400.0 mg/kg/injection, schedule: Q01DX005 (ip), vehicle: other) was 96 % of control.
As for `O=C(O)Cc1ccccc1C(=O)O`, the T/C (endpoint: mean survival time, dose: 100.0 mg/kg/injection, schedule: Q04DX003 (ip), vehicle: Klucel (hydroxypropylcellulose) (HPC)) is 96 % of control; the T/C (endpoint: mean survival time, dose: 200.0 mg/kg/injection, schedule: Q04DX003 (ip), vehicle: Klucel (hydroxypropylcellulose) (HPC)) is 104 % of control; the T/C (endpoint: mean survival time, dose: 400.0 mg/kg/injection, schedule: Q04DX003 (ip), vehicle: Klucel (hydroxypropylcellulose) (HPC)) is 96 % of control.
As for `CCSC(C(O)C(O)C(O)C(O)CO)n1cnc2c(=S)nc[nH]c21` (configuration not stated), the T/C is, setting by setting: under setting [1], 94 % of control; under setting [2], 97 % of control; under setting [3], 96 % of control; (endpoint: mean survival time, dose: 177.0 mg/kg/injection, schedule: Q01DX009 (ip), vehicle: saline with Tween-80) 107 % of control; (endpoint: mean survival time, dose: 200.0 mg/kg/injection, schedule: Q01DX005 (ip), vehicle: water) 96 % of control; (endpoint: mean survival time, dose: 265.0 mg/kg/injection, schedule: Q01DX009 (ip), vehicle: saline with Tween-80) 102 % of control. Also, the T/C (endpoint: mean survival time, dose: 600.0 mg/kg/injection, schedule: Q01DX009 (ip), vehicle: saline with Tween-80) is 150 % of control.
With `CC(=O)NS(=O)(=O)c1ccc([NH-])cc1.CC(=O)NS(=O)(=O)c1ccc([NH-])cc1.[I][Pt+2][I]`, the T/C under setting [4] is 96 % of control; the T/C under setting [5] was 94 % of control; the T/C under setting [6] was 107 % of control; the T/C under setting [7] was 100 % of control; the T/C under setting [8] is 103 % of control.
With `O=C1c2ccccc2C(=O)c2cc(N3C(=O)C=CC3=O)ccc21`, the T/C by setting is: under setting [9], 97 % of control; under setting [10], 96 % of control.
For `CCCCCCP(C)(=O)CCCCCC`, the T/C under setting [11] is 96 % of control, the T/C under setting [12] is 97 % of control and the T/C under setting [13] is 100 % of control.
With `c1ccc2c[n+](CCCCCCCCCC[n+]3ccc4ccccc4c3)ccc2c1`, the T/C is, setting by setting: (endpoint: mean survival time, dose: 8.0 mg/kg/injection, schedule: Q01DX001 (ip), vehicle: saline) 88 % of control; (endpoint: mean survival time, dose: 32.0 mg/kg/injection, schedule: Q01DX001 (ip), vehicle: saline) 88 % of control.
In the case of `ON(C(=Nc1ccccc1)c1ccccc1Cl)c1ccccc1`, the T/C (endpoint: mean survival time, dose: 6.25 mg/kg/injection, schedule: Q01DX009 (ip), vehicle: saline with Tween-80) was 106 % of control; the T/C (endpoint: mean survival time, dose: 6.25 mg/kg/injection, schedule: Q04DX003 (ip), vehicle: saline with Tween-80) is 102 % of control; the T/C (endpoint: mean survival time, dose: 12.5 mg/kg/injection, schedule: Q01DX009 (ip), vehicle: saline with Tween-80) was 101 % of control; the T/C (endpoint: mean survival time, dose: 12.5 mg/kg/injection, schedule: Q04DX003 (ip), vehicle: saline with Tween-80) is 104 % of control; the T/C under setting [4] was 102 % of control; the T/C under setting [9] is 102 % of control. The T/C under setting [10] is 102 % of control.
For the molecule `COC(=O)C#CC(N)=O`, the T/C by setting is: (endpoint: mean survival time, dose: 1.25 mg/kg/injection, schedule: Q01DX009 (ip), vehicle: saline sonified) 106 % of control; (endpoint: mean survival time, dose: 2.5 mg/kg/injection, schedule: Q01DX009 (ip), vehicle: saline sonified) 109 % of control; (endpoint: mean survival time, dose: 5.0 mg/kg/injection, schedule: Q01DX009 (ip), vehicle: saline sonified) 113 % of control; (endpoint: mean survival time, dose: 5.0 mg/kg/injection, schedule: Q04DX003 (ip), vehicle: saline sonified) 110 % of control.
With `C#CCOCC1CO1` (configuration not stated), the T/C runs as follows: (endpoint: mean survival time, dose: 75.0 mg/kg/injection, schedule: Q01DX001 (ip), vehicle: saline) 95 % of control; (endpoint: mean survival time, dose: 150.0 mg/kg/injection, schedule: Q01DX001 (ip), vehicle: saline) 87 % of control.
As to `C(=NC1CCCCC1)c1c[nH]c2ccccc12`, the T/C was 87 % of control under setting [14]; 91 % of control under setting [6]; 89 % of control under setting [15]; 91 % of control under setting [7]; 98 % of control under setting [8].
In the case of `Cc1cc(-n2cccc2)no1`, the T/C was 98 % of control under setting [14]; 107 % of control under setting [15]; 94 % of control (endpoint: mean survival time, dose: 400.0 mg/kg/injection, schedule: Q01DX009 (ip), vehicle: saline with Tween-80).
Take `O=C(c1ccccc1)C1CC1c1ccccc1` (configuration not stated): the T/C (endpoint: mean survival time, dose: 100.0 mg/kg/injection, schedule: Q01DX009 (ip), vehicle: saline) is 101 % of control; the T/C (endpoint: mean survival time, dose: 200.0 mg/kg/injection, schedule: Q01DX009 (ip), vehicle: saline) is 90 % of control; the T/C (endpoint: mean survival time, dose: 400.0 mg/kg/injection, schedule: Q01DX009 (ip), vehicle: saline) was 94 % of control.
Take `[N-]=C=S.[N-]=C=S.[NH-]N.[NH-]N.[Zn]`: the T/C (endpoint: mean survival time, dose: 25.0 mg/kg/injection, schedule: Q04DX002 (ip), vehicle: saline with Tween-80) was 96 % of control; the T/C (endpoint: mean survival time, dose: 50.0 mg/kg/injection, schedule: Q04DX002 (ip), vehicle: saline with Tween-80) was 100 % of control; the T/C (endpoint: mean survival time, dose: 100.0 mg/kg/injection, schedule: Q04DX002 (ip), vehicle: saline with Tween-80) was 102 % of control.
Take `c1cc(-c2ncc[nH]2)ccn1`: the T/C was 112 % of control under setting [11], 96 % of control under setting [12] and 104 % of control under setting [13].
With `OCC1OC(n2cnc3c(OC4CCCC4)ncnc32)C(O)C1O` (configuration not stated), the T/C under setting [9] is 101 % of control; the T/C under setting [10] is 100 % of control; the T/C (endpoint: mean survival time, dose: 400.0 mg/kg/injection, schedule: Q01DX001 (ip), vehicle: saline) is 100 % of control.
In the case of `CCN(CC)CCNC1CCCCC1`, the T/C runs as follows: (endpoint: mean survival time, dose: 25.0 mg/kg/injection, schedule: Q01DX009 (ip), vehicle: saline with Tween-80) 96 % of control; (endpoint: mean survival time, dose: 25.0 mg/kg/injection, schedule: Q04DX003 (ip), vehicle: saline) 97 % of control; (endpoint: mean survival time, dose: 50.0 mg/kg/injection, schedule: Q01DX009 (ip), vehicle: saline with Tween-80) 96 % of control; (endpoint: mean survival time, dose: 50.0 mg/kg/injection, schedule: Q04DX003 (ip), vehicle: saline) 100 % of control; under setting [14], 96 % of control; (endpoint: mean survival time, dose: 100.0 mg/kg/injection, schedule: Q04DX003 (ip), vehicle: saline) 94 % of control.
`FCCc1cccc(C(F)(F)F)c1`: the T/C is 103 % of control under setting [13]; 94 % of control (endpoint: mean survival time, dose: 100.0 mg/kg/injection, schedule: Q04DX003 (ip), vehicle: saline sonified); 101 % of control (endpoint: mean survival time, dose: 200.0 mg/kg/injection, schedule: Q01DX001 (ip), vehicle: saline with Tween-80); 98 % of control (endpoint: mean survival time, dose: 200.0 mg/kg/injection, schedule: Q04DX003 (ip), vehicle: saline sonified); 101 % of control (endpoint: mean survival time, dose: 400.0 mg/kg/injection, schedule: Q01DX001 (ip), vehicle: saline with Tween-80); 98 % of control (endpoint: mean survival time, dose: 400.0 mg/kg/injection, schedule: Q04DX003 (ip), vehicle: saline sonified).
In the case of `[O-][n+]1c2ccccc2c(Oc2ccccc2)c2ccc3ccccc3c21`, the T/C by setting is: under setting [4], 98 % of control; under setting [5], 95 % of control; under setting [6], 86 % of control.
Regarding `O=C1N(CC2CO2)CCN1CC1CO1` (configuration not stated), the T/C is 123 % of control (endpoint: median survival time, dose: 12.5 mg/kg/injection, schedule: Q01DX009 (ip), vehicle: saline); 157 % of control (endpoint: median survival time, dose: 50.0 mg/kg/injection, schedule: Q01DX009 (ip), vehicle: saline); 174 % of control (endpoint: median survival time, dose: 100.0 mg/kg/injection, schedule: Q01DX009 (ip), vehicle: saline); 277 % of control (endpoint: median survival time, dose: 200.0 mg/kg/injection, schedule: Q01DX009 (ip), vehicle: saline); 86 % of control (endpoint: median survival time, dose: 400.0 mg/kg/injection, schedule: Q01DX009 (ip), vehicle: saline).
